# Experimental data: PubChem BioAssay (NCI)
#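 Briefly, cells in 96-well plates were exposed to five compound concentrations for 48 h, and endpoints were estimated by linear interpolation. At the GI50, growth is halved. TGI denotes the concentration required for complete inhibition of growth.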
# Legend:
# Assay in all cases: DTP human tumour cell line panel, 48 h
# 786-0 renal = tested on: 786-0 renal
# A498 renal = tested on: A498 renal
# A549 NSCLC = tested on: A549 NSCLC
# ACHN renal = tested on: ACHN renal
# BT-549 breast = tested on: BT-549 breast
# CAKI-1 renal = tested on: CAKI-1 renal
# CCRF-CEM leukemia = tested on: CCRF-CEM leukemia
# COLO 205 colon = tested on: COLO 205 colon
# DU-145 prostate = tested on: DU-145 prostate
# EKVX NSCLC = tested on: EKVX NSCLC
# HCC-2998 colon = tested on: HCC-2998 colon
# HCT-116 colon = tested on: HCT-116 colon
# HCT-15 colon = tested on: HCT-15 colon
# HL-60(TB) leukemia = tested on: HL-60(TB) leukemia
# HOP-62 NSCLC = tested on: HOP-62 NSCLC
# HOP-92 NSCLC = tested on: HOP-92 NSCLC
# HS 578T breast = tested on: HS 578T breast
# HT29 colon = tested on: HT29 colon
# IGROV1 ovarian = tested on: IGROV1 ovarian
# K-562 leukemia = tested on: K-562 leukemia
# KM12 colon = tested on: KM12 colon
# LOX IMVI melanoma = tested on: LOX IMVI melanoma
# M14 melanoma = tested on: M14 melanoma
# MALME-3M melanoma = tested on: MALME-3M melanoma
# MCF7 breast = tested on: MCF7 breast
# MDA-MB-231 breast = tested on: MDA-MB-231 breast
# MDA-MB-435 = tested on: MDA-MB-435
# MOLT-4 leukemia = tested on: MOLT-4 leukemia
# NCI-H226 lung = tested on: NCI-H226 lung
# NCI-H23 lung = tested on: NCI-H23 lung
# NCI-H460 lung = tested on: NCI-H460 lung
# NCI-H522 lung = tested on: NCI-H522 lung
# NCI/ADR-RES ovarian = tested on: NCI/ADR-RES ovarian
# OVCAR-3 ovarian = tested on: OVCAR-3 ovarian
# OVCAR-4 ovarian = tested on: OVCAR-4 ovarian
# OVCAR-5 ovarian = tested on: OVCAR-5 ovarian
# PC-3 prostate = tested on: PC-3 prostate
# RPMI-8226 leukemia = tested on: RPMI-8226 leukemia
# RXF 393 renal = tested on: RXF 393 renal
# SF-268 CNS = tested on: SF-268 CNS
# SF-295 CNS = tested on: SF-295 CNS
# SF-539 CNS = tested on: SF-539 CNS
# SK-MEL-2 melanoma = tested on: SK-MEL-2 melanoma
# SK-MEL-28 melanoma = tested on: SK-MEL-28 melanoma
# SK-MEL-5 melanoma = tested on: SK-MEL-5 melanoma
# SK-OV-3 ovarian = tested on: SK-OV-3 ovarian
# SN12C renal = tested on: SN12C renal
# SNB-19 CNS = tested on: SNB-19 CNS
# SNB-75 CNS = tested on: SNB-75 CNS
# SR leukemia = tested on: SR leukemia
# SW-620 colon = tested on: SW-620 colon
# TK-10 renal = tested on: TK-10 renal
# U251 CNS = tested on: U251 CNS
# UACC-257 melanoma = tested on: UACC-257 melanoma
# UACC-62 melanoma = tested on: UACC-62 melanoma
# UO-31 renal = tested on: UO-31 renal
compound,measurement,setting,value
NS(=O)(=O)c1ccc(C2C3=C(CCCC3=O)OC3=C2C(=O)c2ccccc2C3=O)cc1 (configuration not stated),GI50,786-0 renal,1640 nM
same,TGI,786-0 renal,3020 nM
same,GI50,A498 renal,1280 nM
same,TGI,A498 renal,2570 nM
same,GI50,A549 NSCLC,1420 nM
same,TGI,A549 NSCLC,3530 nM
same,GI50,ACHN renal,1240 nM
same,TGI,ACHN renal,2530 nM
same,GI50,BT-549 breast,1120 nM
same,TGI,BT-549 breast,2350 nM
same,GI50,CAKI-1 renal,1740 nM
same,TGI,CAKI-1 renal,3200 nM
same,GI50,CCRF-CEM leukemia,383 nM
same,TGI,CCRF-CEM leukemia,2090 nM
same,GI50,COLO 205 colon,348 nM
same,TGI,COLO 205 colon,1290 nM
same,GI50,DU-145 prostate,740 nM
same,TGI,DU-145 prostate,1990 nM
same,GI50,EKVX NSCLC,699 nM
same,TGI,EKVX NSCLC,2530 nM
same,GI50,HCC-2998 colon,1470 nM
same,TGI,HCC-2998 colon,3110 nM
same,GI50,HCT-116 colon,253 nM
same,TGI,HCT-116 colon,725 nM
same,GI50,HCT-15 colon,1330 nM
same,TGI,HCT-15 colon,3460 nM
same,GI50,HL-60(TB) leukemia,254 nM
same,TGI,HL-60(TB) leukemia,559 nM
same,GI50,HOP-62 NSCLC,1490 nM
same,TGI,HOP-62 NSCLC,2910 nM
same,GI50,HOP-92 NSCLC,847 nM
same,TGI,HOP-92 NSCLC,2480 nM
same,GI50,HS 578T breast,1270 nM
same,TGI,HS 578T breast,9400 nM
same,GI50,HT29 colon,1070 nM
same,TGI,HT29 colon,5170 nM
same,GI50,IGROV1 ovarian,347 nM
same,TGI,IGROV1 ovarian,1200 nM
same,GI50,K-562 leukemia,460 nM
same,TGI,K-562 leukemia,2350 nM
same,GI50,KM12 colon,1220 nM
same,TGI,KM12 colon,3270 nM
same,GI50,LOX IMVI melanoma,136 nM
same,TGI,LOX IMVI melanoma,1040 nM
same,GI50,M14 melanoma,455 nM
same,TGI,M14 melanoma,1680 nM
same,GI50,MALME-3M melanoma,319 nM
same,TGI,MALME-3M melanoma,1090 nM
same,GI50,MCF7 breast,221 nM
same,TGI,MCF7 breast,752 nM
same,GI50,MDA-MB-231 breast,318 nM
same,TGI,MDA-MB-231 breast,938 nM
same,GI50,MDA-MB-435,190 nM
same,TGI,MDA-MB-435,357 nM
same,GI50,MOLT-4 leukemia,293 nM
same,TGI,MOLT-4 leukemia,848 nM
same,GI50,NCI-H226 lung,1750 nM
same,TGI,NCI-H226 lung,3360 nM
same,GI50,NCI-H23 lung,198 nM
same,TGI,NCI-H23 lung,1150 nM
same,GI50,NCI-H460 lung,589 nM
same,TGI,NCI-H460 lung,2120 nM
same,GI50,NCI-H522 lung,174 nM
same,TGI,NCI-H522 lung,563 nM
same,GI50,NCI/ADR-RES ovarian,2430 nM
same,TGI,NCI/ADR-RES ovarian,14600 nM
same,GI50,OVCAR-3 ovarian,244 nM
same,TGI,OVCAR-3 ovarian,724 nM
same,GI50,OVCAR-4 ovarian,190 nM
same,TGI,OVCAR-4 ovarian,824 nM
same,GI50,OVCAR-5 ovarian,1700 nM
same,TGI,OVCAR-5 ovarian,3510 nM
same,GI50,PC-3 prostate,371 nM
same,TGI,PC-3 prostate,1330 nM
same,GI50,RPMI-8226 leukemia,410 nM
same,TGI,RPMI-8226 leukemia,1990 nM
same,GI50,RXF 393 renal,1450 nM
same,TGI,RXF 393 renal,2840 nM
same,GI50,SF-268 CNS,386 nM
same,TGI,SF-268 CNS,1660 nM
same,GI50,SF-295 CNS,1570 nM
same,TGI,SF-295 CNS,3310 nM
same,GI50,SF-539 CNS,277 nM
same,TGI,SF-539 CNS,761 nM
same,GI50,SK-MEL-2 melanoma,604 nM
same,TGI,SK-MEL-2 melanoma,2380 nM
same,GI50,SK-MEL-28 melanoma,1420 nM
same,TGI,SK-MEL-28 melanoma,2920 nM
same,GI50,SK-MEL-5 melanoma,1180 nM
same,TGI,SK-MEL-5 melanoma,2430 nM
same,GI50,SK-OV-3 ovarian,1990 nM
same,TGI,SK-OV-3 ovarian,3760 nM
same,GI50,SN12C renal,319 nM
same,TGI,SN12C renal,1030 nM
same,GI50,SNB-19 CNS,1240 nM
same,TGI,SNB-19 CNS,2520 nM
same,GI50,SNB-75 CNS,259 nM
same,TGI,SNB-75 CNS,1170 nM
same,GI50,SR leukemia,470 nM
same,TGI,SR leukemia,3880 nM
same,GI50,SW-620 colon,417 nM
same,TGI,SW-620 colon,1330 nM
same,GI50,TK-10 renal,1780 nM
same,TGI,TK-10 renal,3170 nM
same,GI50,U251 CNS,318 nM
same,TGI,U251 CNS,1050 nM
same,GI50,UACC-257 melanoma,275 nM
same,TGI,UACC-257 melanoma,922 nM
same,GI50,UACC-62 melanoma,240 nM
same,TGI,UACC-62 melanoma,567 nM
same,GI50,UO-31 renal,1550 nM
same,TGI,UO-31 renal,2920 nM
